This assay has as its system H. pylori. Briefly: in vitro inhibition of H. pylori suspension (OD450 after 48 hours). Type of assay: cell-based. To be noted: Helicobacter pylori, read-out: minimum inhibitory concentration. The method, then:
FIGS. 7 and 8 show the results of the in vitro application of the drug carrier according to some embodiments of this invention. In the in vitro experiment, a suspension of H. pylori was obtained and respectively added with amoxicillin (with a minimum inhibitory concentration of about 0.5 μg/ml and the concentration was fixed at 0.5 μg/ml), samples 1, 5, A and E above. Next, the suspensions of H. pylori, after the addition of amoxicillin and the above samples, were further cultured for 48 hours, the OD450 of the suspension each was measured to determine the effect of inhibiting H. pylori. […] Through this test, it can be clearly seen that both the carrier structure and the drug carrier of the disclosure have the ability to inhibit H. pylori, especially the drug carrier with appropriate active substances has an obvious effect.

In brackets after ≈: the same amount, converted by molar mass.

On to `CC1(C)S[C@@H]2[C@H](NC(=O)[C@H](N)c3ccc(O)cc3)C(=O)N2[C@H]1C(=O)O` [amoxicillin], for which the MIC was about 0.5 µg/mL (≈ 1.37 µM).

The values above are taken from patent US20200179286A1, “CARRIER STRUCTURE AND DRUG CARRIER, AND PREPARING METHODS THEREOF” (GENE'E TECH CO., LTD., priority 2018, published 2020).
